Experimental data from patent US11896704B2, “Compounds useful for the treatment and/or care of the skin, hair, nails and/or mucous membranes” (LUBRIZOL ADVANCED MATERIALS, INC., priority 2017, dated 2024).
The star is where a group is joined. Palmitoyl = CCCCCCCCCCCCCCCC(=O)*; NHhexadecyl = CCCCCCCCCCCCCCCCN*; NHHex = CCCCCCN*

Key:
Type in all cases: cell-based
JARID1A gene = JARID1A gene expression in synchronized human epidermal keratinocytes (HEKa), real time PCR arrays; settings: one experiment
Method: In Vitro Study of JARID1A Gene Expression in Synchronized Human Epidermal Keratinocytes from Adult (HEKa) Using Real Time PCR Arrays.
HEKa cells (Life Technologies) are seeded at 3.0×10^5 cells/well in 12-well plates (2 wells per condition) and incubated in culture medium, Keratinocyte growth medium supplemented with Mix C39016-CaCl2 solution (Promocell). For synchronization, cells were subjected to two alternative cycles of 12 hours each at 37° C. in 5% CO2 humidified air (day mode) and 33° C. in 5% CO2 humidified air (night mode). 12 hours after starting synchronization, cells are incubated with the peptides at 0.5 mg/ml or (5 μg/ml) in culture medium, depending on the toxicity effects of each peptide (non-toxic conditions are selected). Cells treated with medium alone are used as basal condition.
At the end of synchronization, cell lysates are collected at two different times: 7:30 hour (early morning point) and 11:30 hour (midday point). Briefly, cells are lysed directly in the wells, and RNA is purified following the protocol described on the RNeasy™ Mini kit (Qiagen) according to the manufacture's protocol. After RNA elution, quantification and analysis of purity of RNA samples are performed with a nanodrop (Thermo). For each sample, 3 μg of high quality RNA is retrotranscribed with iScript Advanced™ (BioRad) in a final volume of 20 μl. Complete reaction mix is incubated in a thermal cycler (Eppendorf) at 42° C. for 30 minutes, and the reaction is stopped at 85° C. for 5 minutes. Complementary DNA is amplified by qPCR in a real-time PCR thermocycler (BioRad) using SYBR Green Supermix™ (BioRad) in the 96-well plate for use with SYBR® Green (BioRad). SYBR Green binds to double-stranded DNA molecules and emits fluorescence which is quantified, and the fluorescence intensity is proportional to the amount of the product in the PCR reaction. Cycling conditions in BioRad CFX96™ instrument are: 95° C. for 3 minutes, followed by 40 cycles of denaturing at 95° C. for 5 seconds, annealing and elongation at 60° C. for 30 seconds. GAPDH (Glyceraldehyde 3-phosphate dehydrogenase), TBP (TATA box binding protein) and HRPT1 (hypoxanthine phosphoribosyltransferase 1) are used as endogenous controls. Fold change relative to the expression of the sample genes and reference genes is calculated using normalized expression (AA(Ct)) method using CFX Manager Software™ (BioRad).
Fold induction of JARID1A gene at 7:30 hour with respect to basal conditions at 7:30 hour for the samples tested are shown in Table 7. The data for fold induction represent the value of one experiment.

[1] = test system: Human Dermal Fibroblasts (HDFa); test: Reactive oxygen species (ROS) levels in HDFa, fluorescence; settings: 0.05 mM, 30 min, positive control
Method: Evaluation of Reactive Oxygen Species (ROS) Levels on Human Dermal Fibroblasts (HDFa) by a Fluorescence Approach. Human Dermal Fibroblasts from adult (HDFa, Life Technologies) are seeded at a density of 10,000 cells/well (3 wells per condition) in 96-well plates in culture medium M106 with Low Serum Growth Supplement (LSGS, Life Technologies). Cells are grown during 24 hours at 37° C. in 5% CO2 humidified air. Then, medium is removed and cells are treated with the peptide […] (PEP-1, H-[SEQ ID. NO. 2]-NH2) during 16 hours at 37° C. in 5% CO2 humidified air. Non-treated cells incubated in treatment medium alone are used as basal conditions. […] After 30 min at 37° C. in 5% CO2 humidified air, cells are used to quantify ROS levels. ROS levels are quantified using a Cellular Reactive Oxygen Species Detection Assay Kit (Abcam) according to the manufacture's protocol. […] After the period of time, fluorescence signal is determined using Operetta® confocal microscope (PerkinElmer, Inc). Fluorescence intensities are measured using Mitotracker OrangeTM channel (Excitation Filter: 520-550 nm/Emission Filter: 560-630 nm) and are corrected by the determination of the number of nuclei per well. […]

[2] = test system: mitochondrial complex I (NADH dehydrogenase); test: Mitochondrial complex I activity in human dermal fibroblasts, colorimetric assay; settings: HDFa, 10 mM, 48 hours, positive control
Method: Inhibition of Mitochondrial Complex I Activity Using an Assay Based on Colorimetric Detection. Human Dermal Fibroblasts from adult (HDFa, Life Technologies) are seeded at a density of 750.000 cells/75 cm^2 flask (one flask per condition) in culture medium M106 with Low Serum Growth Supplement (Life Technologies). Cells are grown during 8 days at 37° C. in 5% CO2 humidified air. Then, medium is removed and cells are treated with scalar dilutions of the peptide […] (PEP-1, H-[SEQ ID. NO. 2]-NH2) at 1, 0.5 and 0.1 mg/ml in culture medium during 48 hours at 37° C. in 5% CO2 humidified air. Non-treated cells incubated in culture medium alone are used as basal conditions. […] After 48 hours of treatment, cells are detached using trypsin and resuspended in 60 ul of Phosphate buffer saline (Sigma). Total protein concentration is measured by a Pierce BCA Protein Assay Kit (BCA Assay, Thermo Scientific) following manufacturer's protocol to adjust the final protein concentration between 700-1000 ug/ml. Briefly, standards and samples are dispensed and Working Reagent is added to the samples. After 30 minutes of incubation at 37° C., absorbance is measured with a microplate reader (Clariostar®, BMG) at 562 nm. Mitochondrial complex I activity is measured with Complex I enzyme activity microplate assay Kit (Abcam) according to the manufacture's protocol. This assay follows the oxidation of NADH to NAD coupled to the reduction of a specific colorimetric dye, leading to an increase in absorbance at 450 nm. In brief, 200 ul of each sample (adjusted to 700-1000 ug/ml of total protein amount) is incubated for 3 hours. After that, wells are washed several times and incubated with Assay Solution provided with the kit (composed by NADH and the specific dye). For the determination of mitochondrial complex I activity, colorimetric increase of Optical Density (OD) at 450 nm in a kinetic reaction along 1 hour is measured with a microplate reader (Clariostar©, BMG). Results are calculated as the rate of increase in OD at 450 nm between two points in the linear zone over time. The percentage of mitochondrial complex I activity relative to basal conditions after the treatment with […] (PEP-1, H-[SEQ ID. NO. 2]-NH2) is represented in Table 9. These values represent the mean for at least three independent assays.

Row | Compound | Fold induction with respect to Basal condition at 7:30h (%) (JARID1A gene; 0.5 mg/ml) | also measured
1 | H-Phe-Trp-Met-Lys-Arg-Lys-Arg-Val-Pro-OH (H-FWMKRKRVP-OH) [PEP-4] | 158.92% | 
2 | Ac-Phe-Trp-Met-Lys-Arg-Lys-Arg-Val-Pro-NH2 (Ac-FWMKRKRVP-NH2) [PEP-3] | 126.63% | 
3 | H-Phe-Trp-Leu-Arg-Arg-Lys-Lys-Ile-Pro-NH2 (H-FWLRRKKIP-NH2) [PEP-9] | 141.90% | 
4 | H-Phe-Trp-Met-Lys-Arg-Lys-Arg-Val-Pro-NHC16H33 (H-FWMKRKRVP-NHhexadecyl; SMILES CCCCCCCCCCCCCCCCNC(=O)[C@@H]1CCCN1C(=O)[C@@H](NC(=O)[C@H](CCCNC(=N)N)NC(=O)[C@H](CCCCN)NC(=O)[C@H](CCCNC(=N)N)NC(=O)[C@H](CCCCN)NC(=O)[C@H](CCSC)NC(=O)[C@H](Cc1c[nH]c2ccccc12)NC(=O)[C@@H](N)Cc1ccccc1)C(C)C) [PEP-8] | 113.64% | 
5 | Ac-Phe-Trp-Met-Lys-Arg-Lys-Arg-Val-Pro-OH (Ac-FWMKRKRVP-OH) [PEP-6] | 109.08% | 
6 | OO [Hydrogen peroxide, Hydrogen Peroxide] |  | Percentage of ROS level relative to basal control conditions (%) [1]: 1309.23%
7 | Palm-Phe-Trp-Met-Lys-Arg-Lys-Arg-Val-Pro-NH2 (Palmitoyl-FWMKRKRVP-NH2; SMILES CCCCCCCCCCCCCCCC(=O)N[C@@H](Cc1ccccc1)C(=O)N[C@@H](Cc1c[nH]c2ccccc12)C(=O)N[C@@H](CCSC)C(=O)N[C@@H](CCCCN)C(=O)N[C@@H](CCCNC(=N)N)C(=O)N[C@@H](CCCCN)C(=O)N[C@@H](CCCNC(=N)N)C(=O)N[C@H](C(=O)N1CCC[C@H]1C(N)=O)C(C)C) [PEP-2] |  | Fold induction with respect to Basal condition at 7:30h (%) (JARID1A gene; 0.005 mg/ml): 122.22%
8 | CN(C)C(=N)N=C(N)N [Metformin, reference compound] |  | Percentage of mitochondrial complex I activity relative to basal condition (%) [2]: 63.61%
9 | Palm-Phe-Trp-Met-Lys-Arg-Lys-Arg-Val-Pro-OH (Palmitoyl-FWMKRKRVP-OH; SMILES CCCCCCCCCCCCCCCC(=O)N[C@@H](Cc1ccccc1)C(=O)N[C@@H](Cc1c[nH]c2ccccc12)C(=O)N[C@@H](CCSC)C(=O)N[C@@H](CCCCN)C(=O)N[C@@H](CCCNC(=N)N)C(=O)N[C@@H](CCCCN)C(=O)N[C@@H](CCCNC(=N)N)C(=O)N[C@H](C(=O)N1CCC[C@H]1C(=O)O)C(C)C) [PEP-5] |  | Fold induction with respect to Basal condition at 7:30h (%) (JARID1A gene; 0.005 mg/ml): 121.55%
10 | H-Phe-Trp-Ile-Gln-Arg-Lys-His-Met-Pro-NH2 (H-FWIQRKHMP-NH2) [PEP-10] | 138.09% | 
11 | H-Phe-Trp-Met-Lys-Arg-Lys-Lys-Val-Pro-NH2 (H-FWMKRKKVP-NH2) [PEP-13] | 147.62% | 
12 | H-Phe-Trp-Met-Lys-Arg-Lys-Arg-Val-Pro-NHC6H13 (H-FWMKRKRVP-NHHex; SMILES CCCCCCNC(=O)[C@@H]1CCCN1C(=O)[C@@H](NC(=O)[C@H](CCCNC(=N)N)NC(=O)[C@H](CCCCN)NC(=O)[C@H](CCCNC(=N)N)NC(=O)[C@H](CCCCN)NC(=O)[C@H](CCSC)NC(=O)[C@H](Cc1c[nH]c2ccccc12)NC(=O)[C@@H](N)Cc1ccccc1)C(C)C) [PEP-7] | 159.64% | 
13 | H-Phe-Trp-Met-Lys-Arg-Lys-Arg-Leu-Pro-NH2 (H-FWMKRKRLP-NH2) [PEP-15] | 123.90% | 
14 | H-Phe-Trp-Met-Arg-Arg-Lys-Arg-Val-Pro-NH2 (H-FWMRRKRVP-NH2) [PEP-12] | 203.75% | 
15 | H-Phe-Trp-Leu-Lys-Arg-Lys-Arg-Val-Pro-NH2 (H-FWLKRKRVP-NH2) [PEP-11] | 127.91% | 
16 | H-Phe-Trp-Met-Lys-Arg-Lys-Arg-Ile-Pro-NH2 (H-FWMKRKRIP-NH2) [PEP-14] | 187.65% | 
